# Source: patent US11034698B2, “Pyrazolo[ 1,5a]pyrimidine derivatives as IRAK4 modulators” (priority 2017, dated 2021)
# Counter-ions that a name gives are not always drawn.
# Molecular target: human IRAK4 (Homo sapiens (Human), UniProt Q9NWZ3)
# Experiment: IRAK4 kinase inhibition, Transcreener fluorescence polarization (ADP)
# Assay type: biochemical
# Settings: recombinant full-length His6-IRAK4 1.25 nM; 125 uM ATP; 125 uM peptide; 90 min; ATP Km 642 uM; read-out: IRAK4 Ki
# Protocol: Compounds were assayed for inhibition of human IRAK4 and IRAK1 catalytic activity using recombinant enzyme produced from insect cells. Full-length IRAK4 protein, carrying an N-terminal His6-Tag, was obtained from Life Technologies (Carlsbad, Calif., USA). The IRAK1 construct was produced internally and was comprised of IRAK1 residues Arg194 to Ser712, preceded by an NH2-terminal His6 tag and the coding sequence for glutathione-S-transferase.
# Kinase activities were assayed using the Transcreener-Fluorecescence polarization platform (BelBrook Labs, Madison, Wis., USA) that measures amounts of the reaction product, ADP.
# Sequence of human IRAK4 (Q9NWZ3 whole entry): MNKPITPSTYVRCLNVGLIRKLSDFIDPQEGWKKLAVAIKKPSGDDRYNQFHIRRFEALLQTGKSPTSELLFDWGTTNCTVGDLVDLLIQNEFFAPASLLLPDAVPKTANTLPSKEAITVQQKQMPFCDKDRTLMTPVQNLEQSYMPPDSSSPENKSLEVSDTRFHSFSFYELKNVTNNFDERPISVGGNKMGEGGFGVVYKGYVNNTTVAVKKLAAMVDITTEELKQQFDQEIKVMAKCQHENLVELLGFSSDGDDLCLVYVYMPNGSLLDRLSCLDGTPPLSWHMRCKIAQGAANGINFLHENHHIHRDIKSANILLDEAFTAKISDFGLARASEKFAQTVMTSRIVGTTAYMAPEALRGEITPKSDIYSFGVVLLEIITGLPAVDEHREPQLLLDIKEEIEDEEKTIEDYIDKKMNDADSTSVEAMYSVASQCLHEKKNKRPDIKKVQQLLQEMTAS
row,SMILES,Ki [nM]
1,"C[C@@]1(CCC#N)COc2cc(N3CCOCC3)c(NC(=O)c3cnn4cccnc34)cc2C1 [Example 58, (S)—N-(3-(2-Cyanoethyl)-3-methyl-7-morpholinochroman-6-yl)pyrazolo[1,5-a]pyrimidine-3-carboxamide]",19
2,"Cn1cc(COc2cc3c(cc2NC(=O)c2cnn4cccnc24)CN(C[C@@H](F)C(C)(C)O)C3=O)cn1 [Example 60, (R)—N-(2-(2-Fluoro-3-hydroxy-3-methylbutyl)-6-((1-methyl-1H-pyrazol-4-yl)methoxy)-1-oxoisoindolin-5-yl)pyrazolo[1,5-a]pyrimidine-3-carboxamide]",1.1
3,"CC(C)(O)[C@H](F)CN1Cc2cc(NC(=O)c3cnn4cccnc34)c(O[C@H]3C[C@@H](F)C3)cc2C1=O [Example 61, N-[6-(3-Fluorocyclobutoxy)-2-[(2R)-2-fluoro-3-hydroxy-3-methyl-butyl]-1-oxo-isoindolin-5-yl]pyrazolo[1,5-a]pyrimidine-3-carboxamide]",0.28
4,"CC(C)(O)[C@H](F)CN1Cc2cc(NC(=O)c3cnn4cccnc34)c(O[C@H]3CCNC3)cc2C1=O [Example 62, N-[2-[(2R)-2-Fluoro-3-hydroxy-3-methyl-butyl]-1-oxo-6-[(3S)-pyrrolidin-3-yl]oxy-isoindolin-5-yl]pyrazolo[1,5-a]pyrimidine-3-carboxamide]",9.2
5,"CC(C)(O)[C@H](F)CN1Cc2cc(NC(=O)c3cnn4cccnc34)c(O[C@H]3C[C@@H](Cl)C3)cc2C1=O [Example 64, N-[6-(3-Chlorocyclobutoxy)-2-[(2R)-2-fluoro-3-hydroxy-3-methyl-butyl]-1-oxo-isoindolin-5-yl]pyrazolo[1,5-a]pyrimidine-3-carboxamide]",0.51
6,"CC(C)(O)[C@H](F)CN1Cc2cc(NC(=O)c3cnn4cccnc34)c(OCC(F)F)cc2C1=O [Example 65, (R)-N-(6-(2,2-Difluoroethoxy)-2-(2-fluoro-3-hydroxy-3-methylbutyl)-1-oxoisoindolin-5-yl)pyrazolo[1,5-a]pyrimidine-3-carboxamide]",0.26
7,"CC(C)(O)[C@H](F)CN1Cc2cc(NC(=O)c3cnn4cccnc34)c(O[C@H]3CC[C@@H](O)C3)cc2C1=O [Example 66, N-(2-((R)-2-Fluoro-3-hydroxy-3-methylbutyl)-6-(((1S,3R)-3-hydroxycyclopentyl)oxy)-1-oxoisoindolin-5-yl)pyrazolo[1,5-a]pyrimidine-3-carboxamide]",0.67
8,"CC(C)Oc1cc2c(cc1NC(=O)c1cnn3cccnc13)CN([C@H]1CCOC1)C2=O [Example 68, (S)-N-(6-Isopropoxy-1-oxo-2-(tetrahydrofuran-3-yl)isoindolin-5-yl)pyrazolo[1,5-a]pyrimidine-3-carboxamide]",2.5
9,"CC(C)(O)[C@H](F)CN1Cc2cc(NC(=O)c3cnn4cccnc34)c(OC3CCNCC3)cc2C1=O [Example 70, (R)-N-(2-(2-Fluoro-3-hydroxy-3-methylbutyl)-1-oxo-6-(piperidin-4-yloxy)isoindolin-5-yl)pyrazolo[1,5-a]pyrimidine-3-carboxamide]",0.7
10,"CC(C)(O)[C@H](F)CN1Cc2cc(NC(=O)c3cnn4cccnc34)c(OC[C@@H]3CNC(=O)C3)cc2C1=O [Example 71, N-[2-[(2R)-2-Fluoro-3-hydroxy-3-methyl-butyl]-1-oxo-6-[[(3S)-5-oxopyrrolidin-3-yl]methoxy]isoindolin-5-yl]pyrazolo[1,5-a]pyrimidine-3-carboxamide]",3.2
11,"CC(C)(O)[C@H](F)CN1Cc2cc(NC(=O)c3cnn4cccnc34)c(OC3CNC3)cc2C1=O [Example 73, N-[6-(Azetidin-3-yloxy)-2-[(2R)-2-fluoro-3-hydroxy-3-methyl-butyl]-1-oxo-isoindolin-5-yl]pyrazolo[1,5-a]pyrimidine-3-carboxamide hydrochloride]",3.7
12,"CC(C)(O)[C@H](F)CN1Cc2cc(NC(=O)c3cnn4cccnc34)c(OC3CC3)cc2C1=O [Example 77, (R)—N-(6-Cyclopropoxy-2-(2-fluoro-3-hydroxy-3-methylbutyl)-1-oxoisoindolin-5-yl)pyrazolo[1,5-a]pyrimidine-3-carboxamide]",0.63
13,"CC(C)Oc1cc2c(cc1NC(=O)c1cnn3cccnc13)CN(C[C@@H](F)C(C)(C)O)C2=O [Example 78, N-[2-[(2R)-2-Fluoro-3-hydroxy-3-methyl-butyl]-6-isopropoxy-1-oxo-isoindolin-5-yl]pyrazolo[1,5-a]pyrimidine-3-carboxamide]",0.17
14,"CC(C)(O)[C@H](F)CN1Cc2cc(NC(=O)c3cnn4cccnc34)c(OCC3COC3)cc2C1=O [Example 79, (R)-N-(2-(2-Fluoro-3-hydroxy-3-methylbutyl)-6-(oxetan-3-ylmethoxy)-1-oxoisoindolin-5-yl)pyrazolo[1,5-a]pyrimidine-3-carboxamide]",0.97
15,"CC(C)(O)[C@H](F)CN1Cc2cc(NC(=O)c3cnn4cccnc34)c(OC3CCCC3)cc2C1=O [Example 80, (R)-N-(6-(Cyclopentyloxy)-2-(2-fluoro-3-hydroxy-3-methylbutyl)-1-oxoisoindolin-5-yl)pyrazolo[1,5-a]pyrimidine-3-carboxamide]",0.97
16,"Cc1cnc2c(C(=O)Nc3cc4c(cc3OC(C)C)C(=O)N(C[C@@H](F)C(C)(C)O)C4)cnn2c1 [Example 81, (R)-N-(2-(2-Fluoro-3-hydroxy-3-methylbutyl)-6-isopropoxy-1-oxoisoindolin-5-yl)-6-methylpyrazolo[1,5-a]pyrimidine-3-carboxamide]",0.42
17,"CCOc1cc2c(cc1NC(=O)c1cnn3cccnc13)CN(C[C@@H](F)C(C)(C)O)C2=O [Example 82, (R)-N-(6-Ethoxy-2-(2-fluoro-3-hydroxy-3-methylbutyl)-1-oxoisoindolin-5-yl)pyrazolo[1,5-a]pyrimidine-3-carboxamide]",0.37
18,"CC(C)(O)[C@H](F)CN1Cc2cc(NC(=O)c3cnn4cccnc34)c(O[C@@H]3CCOC3)cc2C1=O [Example 83, N-(2-((R)-2-Fluoro-3-hydroxy-3-methylbutyl)-1-oxo-6-(((R)-tetrahydrofuran-3-yl)oxy)isoindolin-5-yl)pyrazolo[1,5-a]pyrimidine-3-carboxamide]",0.71
19,"CC(C)(O)[C@H](F)CN1Cc2cc(NC(=O)c3cnn4cccnc34)c(OC3CCOCC3)cc2C1=O [Example 85, (R)-N-(2-(2-Fluoro-3-hydroxy-3-methylbutyl)-1-oxo-6-((tetrahydro-2H-pyran-4-yl)oxy)isoindolin-5-yl)pyrazolo[1,5-a]pyrimidine-3-carboxamide]",1.8
20,"COc1cc2c(cc1NC(=O)c1cnn3cccnc13)CN(C[C@@H](F)C(C)(C)O)C2=O [Example 86, (R)-N-(2-(2-Fluoro-3-hydroxy-3-methylbutyl)-6-methoxy-1-oxoisoindolin-5-yl)pyrazolo[1,5-a]pyrimidine-3-carboxamide]",1.3
21,"CC(C)(O)[C@H](F)CN1Cc2cc(NC(=O)c3cnn4cccnc34)c(OC3COC3)cc2C1=O [Example 87, (R)-N-(2-(2-Fluoro-3-hydroxy-3-methylbutyl)-6-(oxetan-3-yloxy)-1-oxoisoindolin-5-yl)pyrazolo[1,5-a]pyrimidine-3-carboxamide]",0.59
22,"CC(C)(O)[C@H](F)CN1Cc2cc(NC(=O)c3cnn4cccnc34)c(OC(F)F)cc2C1=O [Example 88, (R)-N-(6-(Difluoromethoxy)-2-(2-fluoro-3-hydroxy-3-methylbutyl)-1-oxoisoindolin-5-yl)pyrazolo[1,5-a]pyrimidine-3-carboxamide]",0.5
23,"Cn1cc(Oc2cc3c(cc2NC(=O)c2cnn4cccnc24)CN(C[C@@H](F)C(C)(C)O)C3=O)cn1 [Example 89, (R)-N-(2-(2-Fluoro-3-hydroxy-3-methylbutyl)-6-((1-methyl-1H-pyrazol-4-yl)oxy)-1-oxoisoindolin-5-yl)pyrazolo[1,5-a]pyrimidine-3-carboxamide]",1.3
24,"CC(C)(C)Oc1cc2c(cc1NC(=O)c1cnn3cccnc13)CN(C[C@@H](F)C(C)(C)O)C2=O [Example 90, (R)-N-(6-(tert-Butoxy)-2-(2-fluoro-3-hydroxy-3-methylbutyl)-1-oxoisoindolin-5-yl)pyrazolo[1,5-a]pyrimidine-3-carboxamide]",0.61
25,"CNc1cc2c(cc1NC(=O)c1cnn3cccnc13)CN(C[C@@H](F)C(C)(C)O)C2=O [Example 91, N-[2-[(2R)-2-Fluoro-3-hydroxy-3-methyl-butyl]-6-(methylamino)-1-oxo-isoindolin-5-yl]pyrazolo[1,5-a]pyrimidine-3-carboxamide]",280
26,"O=C(Nc1cc2c(cc1N1CCOCC1)C(=O)N(CC1CCOCC1)C2)c1cnn2cccnc12 [Example 92, N-[6-Morpholino-1-oxo-2-(tetrahydropyran-4-ylmethyl)isoindolin-5-yl]pyrazolo[1,5-a]pyrimidine-3-carboxamide]",3.7
27,"O=C(Nc1cc2c(cc1N1CCOCC1)C(=O)N(CCN1CCCC1)C2)c1cnn2cccnc12 [Example 93, N-[6-Morpholino-1-oxo-2-(2-pyrrolidin-1-ylethyl)isoindolin-5-yl]pyrazolo[1,5-a]pyrimidine-3-carboxamide]",22
28,"O=C(Nc1cc2c(cc1N1CCOCC1)C(=O)N(C1CC3(COC3)C1)C2)c1cnn2cccnc12 [Example 94, N-[6-Morpholino-2-(2-oxaspiro[3.3]heptan-6-yl)-1-oxo-isoindolin-5-yl]pyrazolo[1,5-a]pyrimidine-3-carboxamide]",4.9
29,"CC(C)N1Cc2cc(NC(=O)c3cnn4cccnc34)c(N(C)C)cc2C1=O [Example 95, N-[6-(Dimethylamino)-2-isopropyl-1-oxo-isoindolin-5-yl]pyrazolo[1,5-a]pyrimidine-3-carboxamide]",1.9
